For 4 compounds, growth results are on record in ChEMBL document CHEMBL3994622, “Design and synthesis of new RAF kinase-inhibiting antiproliferative quinoline derivatives. Part 2: Diarylurea derivatives” (Eur J Med Chem, 2017).

Common to all, as to type: functional
The test system of experiment [1] is RPMI-8226. Description: Growth inhibition of human RPMI8226 cells assessed as cell growth at 0.1 uM incubated for 48 hrs by sulforhodamine B assay relative to control. Conditions: RPMI-8226, 48 h, read-out: Activity. For orientation: Sulforhodamine B stains cellular protein and so reports cell mass.
Experiment [2] relates to T47D. Nature of the experiment: Growth inhibition of human T47D cells assessed as cell growth at 1 uM incubated for 48 hrs by sulforhodamine B assay relative to control. The conditions noted are these: read-out: Activity.
Experiment [3] concerns SK-MEL-5. Nature of the experiment: Growth inhibition of human SK-MEL-5 cells assessed as cell growth at 0.1 uM incubated for 48 hrs by sulforhodamine B assay relative to control. Conditions: SK-MEL-5, 48 h, read-out: Activity.
The test system of experiment [4] is SF-539. Description: Growth inhibition of human SF539 cells assessed as cell growth at 0.1 uM incubated for 48 hrs by sulforhodamine B assay relative to control. The conditions noted are these: SF-539, 48 h, read-out: Activity.
The test system of experiment [5] is MDA-MB-435. Nature of the experiment: Growth inhibition of human MDA-MB-435 cells assessed as cell growth at 0.1 uM incubated for 48 hrs by sulforhodamine B assay relative to control. The conditions noted are these: MDA-MB-435, 48 h, read-out: Activity.
The test system of experiment [6] is KM12. Description: Growth inhibition of human KM12 cells assessed as cell growth at 0.01 uM incubated for 48 hrs by sulforhodamine B assay relative to control. Conditions: KM12, 48 h, read-out: Activity.
Experiment [7] relates to SW-620. Nature of the experiment: Growth inhibition of human SW620 cells assessed as cell growth at 0.01 uM incubated for 48 hrs by sulforhodamine B assay relative to control. Conditions: SW-620, 48 h, read-out: Activity.
Experiment [8] concerns CAKI-1. Description: Growth inhibition of human Caki1 cells assessed as cell growth at 0.01 uM incubated for 48 hrs by sulforhodamine B assay relative to control. Conditions: CAKI-1, 48 h, read-out: Activity.
Experiment [9] relates to TK-10. Description: Growth inhibition of human TK10 cells assessed as cell growth at 0.1 uM incubated for 48 hrs by sulforhodamine B assay relative to control. The conditions noted are these: TK-10, 48 h, read-out: Activity.
The subject of experiment [10] is SNB-75. Nature of the experiment: Growth inhibition of human SNB75 cells assessed as cell growth at 0.1 uM incubated for 48 hrs by sulforhodamine B assay relative to control. The conditions noted are these: SNB-75, 48 h, read-out: Activity.
For experiment [11], the system named is CCRF-CEM. Nature of the experiment: Growth inhibition of human CCRF-CEM cells assessed as cell growth at 100 uM incubated for 48 hrs by sulforhodamine B assay relative to control. Conditions: read-out: Activity.
In experiment [12] the test system is EKVX. Nature of the experiment: Growth inhibition of human EKVX cells assessed as cell growth at 1 uM incubated for 48 hrs by sulforhodamine B assay relative to control. The conditions noted are these: read-out: Activity.
Experiment [13] has as its system HCC 2998. Nature of the experiment: Growth inhibition of human HCC2998 cells assessed as cell growth at 100 uM incubated for 48 hrs by sulforhodamine B assay relative to control. Conditions: HCC 2998, 48 h, read-out: Activity.
In experiment [14] the test system is SW-620. Nature of the experiment: Growth inhibition of human SW620 cells assessed as cell growth at 100 uM incubated for 48 hrs by sulforhodamine B assay relative to control. Conditions: SW-620, 48 h, read-out: Activity.
Experiment [15] has as its system SK-OV-3. Nature of the experiment: Growth inhibition of human SKOV3 cells assessed as cell growth at 10 uM incubated for 48 hrs by sulforhodamine B assay relative to control. Conditions: SK-OV-3, 48 h, read-out: Activity.
Experiment [16] concerns LOX IMVI. Description: Growth inhibition of human LOXIMVI cells assessed as cell growth at 100 uM incubated for 48 hrs by sulforhodamine B assay relative to control. The conditions noted are these: read-out: Activity.
Experiment [17] concerns HL-60(TB). Nature of the experiment: Growth inhibition of human HL-60(TB) cells assessed as cell growth at 10 uM incubated for 48 hrs by sulforhodamine B assay relative to control. Conditions: HL-60, 48 h, read-out: Activity.
Experiment [18] relates to HCT-116. Description: Growth inhibition of human HCT116 cells assessed as cell growth at 10 uM incubated for 48 hrs by sulforhodamine B assay relative to control. The conditions noted are these: HCT-116, 48 h, read-out: Activity.
The subject of experiment [19] is HOP-92. Nature of the experiment: Growth inhibition of human HOP92 cells assessed as cell growth at 0.1 uM incubated for 48 hrs by sulforhodamine B assay relative to control. The conditions noted are these: HOP-92, 48 h, read-out: Activity.
The subject of experiment [20] is KM12. Nature of the experiment: Growth inhibition of human KM12 cells assessed as cell growth at 0.1 uM incubated for 48 hrs by sulforhodamine B assay relative to control. Conditions: KM12, 48 h, read-out: Activity.
Experiment [21] concerns Hs-578T. Description: Growth inhibition of human Hs 578T cells assessed as cell growth at 3 uM incubated for 48 hrs by sulforhodamine B assay relative to control. Conditions: read-out: Activity.
Experiment [22] concerns NCI/ADR-RES. Nature of the experiment: Growth inhibition of human NCI/ADR-RES cells assessed as cell growth at 3 uM incubated for 48 hrs by sulforhodamine B assay relative to control. The conditions noted are these: read-out: Activity.
Experiment [23] has as its system CAKI-1. Nature of the experiment: Growth inhibition of human Caki1 cells assessed as cell growth at 0.003 uM incubated for 48 hrs by sulforhodamine B assay relative to control. Conditions: CAKI-1, 48 h, read-out: Activity.
Experiment [24] deals with PC-3. Description: Growth inhibition of human PC3 cells assessed as cell growth at 0.03 uM incubated for 48 hrs by sulforhodamine B assay relative to control. The conditions noted are these: PC-3, 48 h, read-out: Activity.
Experiment [25] relates to OVCAR-8. Nature of the experiment: Growth inhibition of human OVCAR8 cells assessed as cell growth at 3 uM incubated for 48 hrs by sulforhodamine B assay relative to control. The conditions noted are these: OVCAR-8, 48 h, read-out: Activity.
The subject of experiment [26] is A498. Nature of the experiment: Growth inhibition of human A498 cells assessed as cell growth at 0.03 uM incubated for 48 hrs by sulforhodamine B assay relative to control. The conditions noted are these: A498, 48 h, read-out: Activity.
The test system of experiment [27] is COLO 205. Nature of the experiment: Growth inhibition of human COLO205 cells assessed as cell growth at 0.03 uM incubated for 48 hrs by sulforhodamine B assay relative to control. The conditions noted are these: COLO 205, 48 h, read-out: Activity.
In experiment [28] the test system is SK-MEL-28. Description: Growth inhibition of human SK-MEL-28 cells assessed as cell growth at 30 uM incubated for 48 hrs by sulforhodamine B assay relative to control. The conditions noted are these: SK-MEL-28, 48 h, read-out: Activity.
For experiment [29], the system named is HOP-92. Nature of the experiment: Growth inhibition of human HOP92 cells assessed as cell growth at 0.003 uM incubated for 48 hrs by sulforhodamine B assay relative to control. Conditions: HOP-92, 48 h, read-out: Activity.
The test system of experiment [30] is HCT-15. Description: Growth inhibition of human HCT15 cells assessed as cell growth at 0.03 uM incubated for 48 hrs by sulforhodamine B assay relative to control. The conditions noted are these: HCT-15, 48 h, read-out: Activity.
Experiment [31] has as its system ACHN. Description: Growth inhibition of human ACHN cells assessed as cell growth at 30 uM incubated for 48 hrs by sulforhodamine B assay relative to control. Conditions: read-out: Activity.
In experiment [32] the test system is Malme-3M. Description: Growth inhibition of human MALME-3M cells assessed as cell growth at 0.003 uM incubated for 48 hrs by sulforhodamine B assay relative to control. Conditions: read-out: Activity.
The subject of experiment [33] is MDA-MB-231. Nature of the experiment: Growth inhibition of human MDA-MB-231 cells assessed as cell growth at 0.003 uM incubated for 48 hrs by sulforhodamine B assay relative to control. Conditions: MDA-MB-231, 48 h, read-out: Activity.
Experiment [34] concerns MOLT-4. Description: Growth inhibition of human MOLT4 cells assessed as cell growth at 0.3 uM incubated for 48 hrs by sulforhodamine B assay relative to control. Conditions: MOLT-4, 48 h, read-out: Activity.

As for `COc1cc2cc(Oc3ccc(NC(=O)Nc4cc(C(F)(F)F)cc(C(F)(F)F)c4)cc3)c(C)nc2cc1OC`, the growth at 0.1 µM stood at 93% in experiment [1]; 101% in experiment [3]; 94% in [4]; 98% in experiment [5]; 89% in [9]; 74% in [10]. Moreover, the results for the growth at 0.1 µM in [19] and in [20] were 90% and 95%, respectively. Besides, the values for the growth at 1 µM in experiment [2] and in experiment [12] were 64% and 50%, respectively. The growth at 0.01 µM turned out to be 98% in experiment [6], 100% in experiment [7] and 88% in [8]. Also, the growth at 100 µM in experiment [11] is -40%; in experiment [13] it was -92%; in experiment [14], -66%; in [16], -90%. For the same compound, the values for the growth at 10 µM in experiment [15], in [17] and in experiment [18] were -75%, -41% and -84%, respectively.
As for `Cc1nc2cc(O)c(O)cc2cc1Oc1ccc(NC(=O)Nc2ccc(Cl)c(Cl)c2)cc1`, the growth at 3 µM in [21] was 100%; in experiment [22], 85%; in experiment [25], 66%. Also, the growth at 0.003 µM in experiment [23] was 97%; in [29], 84%; in [32], 99%; in [33], 110%. The growth at 0.03 µM in [24] was found to be 97%; in experiment [26], 75%; in experiment [27], 108%; in experiment [30], 98%. Besides, the values for the growth at 30 µM in experiment [28] and in experiment [31] were -3% and -18%, respectively. For the same compound, the growth at 0.3 µM in experiment [34] was determined as 106%.
On to `COc1cc2cc(Oc3ccc(NC(=O)Nc4ccc(Cl)c(Cl)c4)cc3)c(C)nc2cc1OC`, for which the growth at 0.1 µM worked out at 101% in experiment [1]; 100% in experiment [3]; 103% in experiment [4]; 92% in [5]; 121% in experiment [9]; 75% in experiment [10]. The growth at 0.1 µM in experiment [19] was 92%; in experiment [20], 104%. Besides, the growth at 1 µM turned out to be 88% in experiment [2] and 81% in experiment [12]. In addition, the figures for the growth at 0.01 µM in [6], in experiment [7] and in experiment [8] were 103%, 101% and 88%, respectively. In addition, the growth at 100 µM in experiment [11] is -26%; in experiment [13], -9%; in experiment [14] it was -68%; in experiment [16], -100%. Also, the growth at 10 µM in [15] was 41%; in experiment [17], -22%; in experiment [18], 2%.
As to `COc1cc2cc(Oc3ccc(NC(=O)Nc4ccc(Cl)c(C(F)(F)F)c4)cc3)c(C)nc2cc1OC`, the results for the growth at 3 µM in [21], in experiment [22] and in experiment [25] were -15%, 8% and 6%, respectively. The growth at 0.003 µM in experiment [23] came to 93%; in experiment [29], 92%; in [32] it was 98%; in experiment [33] it was 101%. Besides, the growth at 0.03 µM in [24] was 94%; in experiment [26], 68%; in [27] it was 94%; in experiment [30], 93%. Also, the values for the growth at 30 µM in [28] and in experiment [31] were -92% and -85%, respectively. In addition, in [34], the growth at 0.3 µM was found to be 98%.
